Assay results published in PubChem BioAssay (NCI).
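In this assay, cells in 96-well plates receive the compound at five concentrations for 48 hours. Endpoints are linearly interpolated between the surrounding concentrations. GI50 marks 50% less growth. The concentration for full growth arrest is given as TGI.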

What was measured:
Assay in all cases: growth of human tumour cells (NCI), 48 h
786-0 renal = system: 786-0 renal
A498 renal = system: A498 renal
A549 NSCLC = system: A549 NSCLC
ACHN renal = system: ACHN renal
BT-549 breast = system: BT-549 breast
CAKI-1 renal = system: CAKI-1 renal
CCRF-CEM leukemia = system: CCRF-CEM leukemia
COLO 205 colon = system: COLO 205 colon
DU-145 prostate = system: DU-145 prostate
HCC-2998 colon = system: HCC-2998 colon
HCT-116 colon = system: HCT-116 colon
HCT-15 colon = system: HCT-15 colon
HL-60(TB) leukemia = system: HL-60(TB) leukemia
HOP-62 NSCLC = system: HOP-62 NSCLC
HOP-92 NSCLC = system: HOP-92 NSCLC
HS 578T breast = system: HS 578T breast
HT29 colon = system: HT29 colon
IGROV1 ovarian = system: IGROV1 ovarian
K-562 leukemia = system: K-562 leukemia
KM12 colon = system: KM12 colon
LOX IMVI melanoma = system: LOX IMVI melanoma
M14 melanoma = system: M14 melanoma
MALME-3M melanoma = system: MALME-3M melanoma
MCF7 breast = system: MCF7 breast
MDA-MB-231 breast = system: MDA-MB-231 breast
MDA-MB-435 = system: MDA-MB-435
MOLT-4 leukemia = system: MOLT-4 leukemia
NCI-H226 lung = system: NCI-H226 lung
NCI-H23 lung = system: NCI-H23 lung

Work on `COc1cc(N2CCC(N3CCN(C)CC3)CC2)ccc1Nc1ncnc(Nc2ccccc2S(=O)(=O)C(C)C)n1` yielded a GI50 (786-0 renal) of 8.55 µM, a TGI (786-0 renal) of 22.9 µM and a GI50 (A498 renal) of 2.3 µM. For the same compound, the TGI (A498 renal) was 17.2 µM, the GI50 (A549 NSCLC) was 3.17 µM and the TGI (A549 NSCLC) was 14.9 µM. It also gave a GI50 (ACHN renal) of 2.38 µM, a TGI (ACHN renal) of 14.8 µM and a GI50 (BT-549 breast) of 18.4 µM. The TGI (BT-549 breast) was 44.7 µM, the GI50 (CAKI-1 renal) was 3.32 µM and the TGI (CAKI-1 renal) was 13 µM. The GI50 (CCRF-CEM leukemia) was 5.84 µM, the TGI (CCRF-CEM leukemia) was > 42.7 µM and the GI50 (COLO 205 colon) was 3.21 µM. The TGI (COLO 205 colon) was 11.1 µM, the GI50 (DU-145 prostate) was 5.32 µM and the TGI (DU-145 prostate) was 20.9 µM. The GI50 (HCC-2998 colon) was 13.2 µM, the TGI (HCC-2998 colon) was 36.9 µM and the GI50 (HCT-116 colon) was 4.94 µM. The TGI (HCT-116 colon) was 22.7 µM, the GI50 (HCT-15 colon) was 3.5 µM and the TGI (HCT-15 colon) was > 46.5 µM. The GI50 (HL-60(TB) leukemia) was 11.7 µM, the TGI (HL-60(TB) leukemia) was 32.2 µM and the GI50 (HOP-62 NSCLC) was 2.29 µM. For the same compound, the TGI (HOP-62 NSCLC) was 11.1 µM, the GI50 (HOP-92 NSCLC) was 0.467 µM and the TGI (HOP-92 NSCLC) was 2.03 µM. It also gave a GI50 (HS 578T breast) of 4.2 µM, a TGI (HS 578T breast) of 54.5 µM and a GI50 (HT29 colon) of 1.93 µM. It also gave a TGI (HT29 colon) of 7.25 µM, a GI50 (IGROV1 ovarian) of 2.64 µM and a TGI (IGROV1 ovarian) of 7.5 µM. It also gave a GI50 (K-562 leukemia) of 10.6 µM, a TGI (K-562 leukemia) of 73.7 µM and a GI50 (KM12 colon) of 6.76 µM. It also gave a TGI (KM12 colon) of 27.6 µM, a GI50 (LOX IMVI melanoma) of 2.28 µM and a TGI (LOX IMVI melanoma) of 7.62 µM. For the same compound, the GI50 (M14 melanoma) was 4.07 µM, the TGI (M14 melanoma) was 16.6 µM and the GI50 (MALME-3M melanoma) was 3.12 µM. The TGI (MALME-3M melanoma) was 20.2 µM, the GI50 (MCF7 breast) was 2.36 µM and the TGI (MCF7 breast) was 23.5 µM. It also gave a GI50 (MDA-MB-231 breast) of 3.31 µM, a TGI (MDA-MB-231 breast) of 18.5 µM and a GI50 (MDA-MB-435) of 2.6 µM. The TGI (MDA-MB-435) was 10.2 µM, the GI50 (MOLT-4 leukemia) was 5.07 µM and the TGI (MOLT-4 leukemia) was > 64.8 µM. The GI50 (NCI-H226 lung) was 2.19 µM, the TGI (NCI-H226 lung) was 17.5 µM and the GI50 (NCI-H23 lung) was 8.1 µM.
